Test results as given in patent publication US20230248744A1, “25-HYDROXYVITAMIN D2 AND/OR D3 FOR USE IN OBESITY” (CARBOGEN AMCIS B.V., priority 2020, published 2023).
Read-outs that look alike come from different tables or passages of the source.

Experiments:
[1] = cited from earlier work
[2] = single or multiple oral doses of 1250 μg vitamin D, or a dose of 900 μg 25(OH)D3; cited from earlier work
[3] = cited from earlier work; remark: listed apart in the source
[4] = Double-blind randomized crossover pharmacokinetic study, single oral 900 μg vitamin D3 or 25(OH)D3; type: in vivo, human; conditions: for Cmax / Tmax / concentration at 14 days / half-life / AUC: both sexes, human, serum, po, single oral 900 μg, mean ± SEM; for Cmax / Tmax / half-life / AUC: 900 ug; for concentration at 14 days: 900 μg, read-out: Ctrough (trough level at day 14); for half-life: read-out: T1/2 (elimination half-life) (converted)
Procedure: The conclusions as presented herein are based on the following experiments: In a double-blinded cross-over study single high dosages (900 μg total in two soft gel capsules containing 450 μg) of either vitamin D3 or 25(OH)D3 were administered to vitamin D-deficient volunteers including healthy controls as well as subjects with a history of malabsorption. At the outset, the BMI was determined. Blood samples were then taken at baseline and at 2, 4, 6, 8, and 12 hours as well as 1, 2, 3, 7, and 14 days after administration (FIG. 2). All the samples were analyzed for their contents in vitamin D3 per se as well as 25(OH)D3. […] In addition, peak levels were more rapidly reached with 25(OH)D3 than with vitamin D3 (see FIG. 5). The immediate increase in serum 25(OH)D3 compared to the delayed increase observed with vitamin D3 supports the concept that 25(OH)D3 is being rapidly absorbed from the small intestine into the portal circulation, whereas vitamin D3 first needs to be incorporated into the chylomicrons which are absorbed into the lymphatic system.
The pharmacokinetic parameters of orally administered 25(OH)D3 and vitamin D3 (both provided for formulation in form of visually identical soft-gel pills) were studied based on the corresponding serum concentration-time curves in healthy adults and adults with a history of intestinal malabsorption (see FIG. 2). Cinical safety has been evaluated by monitoring serum calcium, phosphorus, parathyroid hormone (PTH) and 25(OH)D levels at the beginning and end of the study. Furthermore, the distribution of supplemented 25(OH)D3 (or 25(OH)D2) into adipose tissue and the role it is playing there was also studied.
Serum levels of calcium, phosphorus, albumin, creatinine and intact parathyroid hormone (iPTH) were determined at baseline and at the end of each 14-day pharmacokinetic study (see Table 4). The pharmacokinetic parameters have been determined by evaluating the serum concentration-time curves in patients with malabsorption syndrome and healthy controls (Tables 5 and 6).
The primary outcomes of the study are the serum pharmacokinetic parameters of 25(OH)D3 and vitamin D3 after a single oral administration of 900 μg of each in a double-blind randomized crossover study.
Adult patients (18 years and older) with a history of intestinal malabsorption (n=10) and healthy adult volunteers (n=10); (of both sexes and all ethnicities) has been recruited in this randomized double-blinded crossover study. The BMI has been determined and recorded at baseline. All subjects have been prescreened for 25(OH)D levels to include subjects with 25(OH)D<30 ng/mL. The subjects have been randomized to receive two oral doses of 450 μg taken simultaneously (total 900 μg) of either vitamin D3 or 25(OH)D3. Blood samples were taken at baseline and at 2, 4, 6, 8, 12 hours and days 1, 2, 3, 7 and 14. There was a two weeks washout period before the subject received in a double blinded manner, two oral doses of 450 μg taken simultaneously (total 900 μg) of either 25(OH)D3 or vitamin D3 (depending on which one they took in the randomization) any time after the 2 week washout. Blood samples were taken at baseline and at 2, 4, 6, 8, 12 hours and days 1, 2, 3, 7 and 14 days. Serum levels of calcium, phosphorus, albumin, creatinine, and intact parathyroid hormone (iPTH) were obtained at baseline and at day 14 for each arm (or within a reasonable time if the study participant was unable to come on the exact day).
The individuals participating in the study had, after signing a consent form, been randomized by a computer randomization chart in a blinded manner to receive two oral doses of 450 μg taken simultaneously (total 900 μg) of either vitamin D3 or 25(OH)D3. Blood samples have been taken at baseline and at 2, 4, 6, 8, 12 hours and days 1, 2, 3, 7 and 14. […]

[5] = vitamin D deficient postmenopausal women; single p.o. bolus of 140 μg of each substance; cited from earlier work
[6] = cited from earlier work; remark: listed apart in the source
[7] = healthy participants with higher BMI (N = 5)
[8] = healthy participants with lower BMI (N = 5)
[9] = patients with fat malabsorption (N = 6)

Compound: C=C1CC[C@H](O)C/C1=C/C=C1\CCC[C@]2(C)[C@@H]([C@H](C)CCCC(C)(C)O)CC[C@@H]12 [25-hydroxyvitamin D3]
- increase of 25(OH)D by 24 hours ([1]; after bolus intravenous dose): 40 ng/mL
- toxicity ([1]; bolus intravenous 448 μg or 900 μg slow release): No toxicity was observed
- increase of peak concentration of 25(OH)D above baseline ([1]; bolus intravenous dose of 448 μg): approximately 110 ng/mL
- toxicity in pharmacokinetic study ([1]; oral single dose of 900 μg): did not show any untoward toxicity
- reports of toxicity [2]: toxicity has never been reported
- power of oral calcifediol relative to oral cholecalciferol (vitamin D3) [3]: three- to five-time more powerful
- time at which the peak of the serum concentration is reached ([4]; FIG. 5, oral 900 μg): ~8 h
- bioavailability in subjects with a history of vitamin D/fat malabsorption ([4]; after administration of the respective product, FIGS. 3a and b): almost normal
- Cmax ([4]; healthy participants (N = 10)): 23.1 ± 4.6 ng/mL
- Tmax ([4]; healthy participants (N = 10)): 11.2 ± 4.1 h
- concentration at 14 days ([4]; healthy participants (N = 10)): 6.1 ± 1.3 ng/mL
- half-life ([4]; healthy participants (N = 10)): 60.6 ± 7.9 h
- AUC ([4]; healthy participants (N = 10), serum level of the administered substance): 3130 ± 545 ng·h/mL
- AUC [4, 7]: 2620 ± 855 ng·h/mL
- Cmax [4, 7]: 21.4 ± 8 ng/mL
- Tmax [4, 7]: 15.2 ± 8.2 h
- concentration at 14 days [4, 7]: 4.6 ± 1.4 ng/mL
- half-life [4, 7]: 55 ± 10.7 h
- AUC [4, 8]: 3630 ± 690 ng·h/mL
- Cmax [4, 8]: 24.8 ± 5.5 ng/mL
- Tmax [4, 8]: 7.2 ± 0.5 h
- concentration at 14 days [4, 8]: 7.6 ± 2.1 ng/mL
- half-life [4, 8]: 66.2 ± 12.3 h
- Cmax [4, 9]: 23.2 ± 6.8 ng/mL
- Tmax [4, 9]: 5.3 ± 0.7 h
- concentration at 14 days [4, 9]: 6.7 ± 1.5 ng/mL
- half-life [4, 9]: 65.7 ± 29.9 h
- AUC ([4]; patients with fat malabsorption (N = 6), serum level of the administered substance): 2670 ± 735 ng·h/mL
- Cmax increase over baseline of 25(OH)D3 [5]: 24.7 ng/mL

Compound: C=C1CC[C@H](O)C/C1=C/C=C1\CCC[C@]2(C)[C@@H]([C@H](C)/C=C/[C@H](C)C(C)C)CC[C@@H]12 [vitamin D2, ergocalciferol]
- serum vitamin D concentration reached ([6]; five of the seven patients with intestinal fat malabsorption, oral 50,000 IU): ≤ 10 ng/mL

Compound: vitamin D
- peak serum vitamin D concentration ([6]; single oral dose of 1.25 mg (50'000 IU), baseline less than 5 ng/mL): over 50 ng/mL
- time of fall of serum vitamin D to baseline levels ([6]; single oral dose of 1.25 mg): ≤ 3 days
- time of peak serum vitamin D concentration ([6]; single oral dose of 1.25 mg): ≤ 12 h
